In paper PMC9298526, “RapD Is a Multimeric Calcium-Binding Protein That Interacts With the Rhizobium leguminosarum Biofilm Exopolysaccharide, Influencing the Polymer Lengths” (Frontiers in Microbiology, 2022):
“And” between values parts separate entries of the source, which are not always exact repeats. Identical values can stand only once.

T1: RapD (Rhizobium johnstonii, UniProt Q1MFT2)
T1 construct: gene RL2702
T1 sequence (Q1MFT2 1-277): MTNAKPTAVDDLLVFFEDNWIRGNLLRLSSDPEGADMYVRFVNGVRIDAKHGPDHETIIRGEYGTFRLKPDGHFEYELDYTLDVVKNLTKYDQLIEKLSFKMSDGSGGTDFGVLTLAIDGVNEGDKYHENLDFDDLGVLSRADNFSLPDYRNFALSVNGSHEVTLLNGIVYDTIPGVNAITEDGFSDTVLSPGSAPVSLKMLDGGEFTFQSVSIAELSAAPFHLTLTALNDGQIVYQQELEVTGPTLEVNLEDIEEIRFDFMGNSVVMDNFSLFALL


Legend:
RapD = molecular target: T1, RapD; experiment: binding inhibition assay (ELISA): RapD to immobilized EPS; conditions: with calcium (TBS, 1 mM CaCl2); room temperature; galactose 0-300 mM preincubated with RapD; proteinase K treated Rlv 3841 EPS immobilized; indirect competition read-out
[1] = molecular target: the molecule itself; experiment: SEC with 90° static light scattering (SLS) and refractometer; Superdex 200, 100 ul of RapD at 1 mg/ml pre-incubated with 1.25 mM CaCl2, 20 mM Tris-HCl, 0.15 M NaCl, pH 8, 0.4 ml/min, 20°C, BSA as standard

Row | Molecule | partial inhibition of EPS binding (RapD) | stoichiometry N [1]
1 | OC[C@H]1OC(O)[C@H](O)[C@@H](O)[C@H]1O (some centres unmarked) [galactose] | RapD interaction with the EPS was partially inhibited in the presence of high concentrations of galactose | 
2 | Recombinant full-length RapD (natural protein, Rhizobium leguminosarum bv. viciae 3841, UniProt Q1MFT2 1-277, looked up, N-terminal Ra/CHDL domain (aa 1-122) and C-terminal region (aa 123-277); Cloned NdeI-NotI into pET-22b; The protein was decalcified with EGTA before calcium was added; also called Apo-RapD; RapD-Apo; source: E. coli BL21 (DE3) carrying pET22brapD, purified (Ni-NTA HiTrap Chelating, dialysis against 10 mM EGTA, Superdex 200); not shown: His tag (from the vector pET-22b)) MTNAKPTAVDDLLVFFEDNWIRGNLLRLSSDPEGADMYVRFVNGVRIDAKHGPDHETIIRGEYGTFRLKPDGHFEYELDYTLDVVKNLTKYDQLIEKLSFKMSDGSGGTDFGVLTLAIDGVNEGDKYHENLDFDDLGVLSRADNFSLPDYRNFALSVNGSHEVTLLNGIVYDTIPGVNAITEDGFSDTVLSPGSAPVSLKMLDGGEFTFQSVSIAELSAAPFHLTLTALNDGQIVYQQELEVTGPTLEVNLEDIEEIRFDFMGNSVVMDNFSLFALL |  | 3 and 2
